Experimental data published in article PMC9462851, “Redox-controlled reorganization and flavin strain within the ribonucleotide reductase R2b–NrdI complex monitored by serial femtosecond crystallography” (eLife, 2022).

Key:
[1] = molecular target: T1, BcR2b–NrdI complex (BcR2bMnMn–NrdI) (Bacillus cereus, UniProt Q81G55+Q81G57); experiment: serial femtosecond crystallography (XFEL), […] Å; type: binding; conditions: Mn(II)/Mn(II) R2b, room temperature
T1 construct: Untagged purification from E. coli BL21(DE3), plasmids pET22b-BcnrdI and pET22b-Bcr2b; NrdI 118 residues, 13,449 Da; R2b 322 residues, 37,017 Da, produced metal-free then Mn(II)-loaded; 1:1 complex, dimer of heterodimers
T1 sequence (Q81G57 1-119): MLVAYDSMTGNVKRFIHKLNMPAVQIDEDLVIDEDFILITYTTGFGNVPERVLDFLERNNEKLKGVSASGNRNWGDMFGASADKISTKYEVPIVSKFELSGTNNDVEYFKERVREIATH
T1 sequence (Q81G55 1-322): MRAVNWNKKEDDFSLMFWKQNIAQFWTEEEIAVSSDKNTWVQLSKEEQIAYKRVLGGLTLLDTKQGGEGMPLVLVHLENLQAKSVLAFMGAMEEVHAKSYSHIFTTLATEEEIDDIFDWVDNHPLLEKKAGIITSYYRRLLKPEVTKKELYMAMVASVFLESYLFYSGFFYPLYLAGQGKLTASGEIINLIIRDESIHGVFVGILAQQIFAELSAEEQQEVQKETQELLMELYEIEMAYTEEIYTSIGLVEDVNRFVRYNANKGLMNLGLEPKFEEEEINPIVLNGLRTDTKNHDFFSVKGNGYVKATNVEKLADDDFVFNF

[2] = molecular target: Bacillus cereus ribonucleotide reductase class Ib R2 subunit (R2b), di-manganese form (Bacillus cereus); experiment: crystal structure; serial femtosecond crystallography at an XFEL (LCLS MFX), room temperature, 2.0 Å; complex reconstituted in vitro by mixing 0.25 mM BcR2b (with 12 equivalents Mn(II)Cl2) and 0.25 mM BcNrdI in 50 mM Tris-HCl pH 7.5, 20°C; batch crystals with NrdI oxidized (7Z3D) or reduced in the crystal with dithionite to the hydroquinone (7Z3E)

## Cc1cc2c(cc1C)N(C[C@H](O)[C@H](O)[C@H](O)COP(=O)(O)O)c1[nH]c(=O)[nH]c(=O)c1N2 [FMNhq, hydroquinone flavin mononucleotide]
[1]; anaerobic, crystals reduced with sodium dithionite, noncovalent FMN in NrdI at the R2b interface
  serial femtosecond crystallography (XFEL), 2.0 Å: The corresponding structure is denoted BcR2bMnMn–NrdIhq (PDB ID: 7Z3E)

## Cc1cc2nc3c(=O)[nH]c(=O)nc-3n(C[C@H](O)[C@H](O)[C@H](O)COP(=O)(O)O)c2cc1C [FMNox, flavin mononucleotide]
[1]; oxidized crystals grown aerobically, noncovalent FMN in NrdI at the R2b interface (R2b Phe17, Gln20)
  serial femtosecond crystallography (XFEL), 2.0 Å: The structure from these crystals is later referred to as BcR2bMnMn–NrdIox (PDB ID: 7Z3D)

B1: Bacillus cereus NrdI (flavoprotein with bound flavin mononucleotide) (natural protein)
chain: MLVAYDSMTGNVKRFIHKLNMPAVQIDEDLVIDEDFILITYTTGFGNVPERVLDFLERNNEKLKGVSASGNRNWGDMFGASADKISTKYEVPIVSKFELSGTNNDVEYFKERVREIAT
[2]
  stoichiometry N: 1
